Test system: S. carnosus TM300
Assay: RNAseq differential gene expression
Format: cell-based, Staphylococcus carnosus
Method: For the RNAseq experiments, epilancin was added at sub-lethal concentration (0.5x MIC) to S. carnosus TM300 once the cultures reached an OD600 of 0.6. RNA was extracted 40 min after the treatment, using a FastRNA Pro Blue kit (MP Biomedicals). Both treated and parallel untreated samples were collected at the same time. Sequencing was performed at the Carver Biotechnology Center (UIUC). For RNAseq analysis, gene counts were read in to R (v3.1.1; [Team, 2014]), and 14/2441 genes were removed because they had fewer than 32 total counts across the six samples. edgeR’s (v3.6.7) TMM normalization ([Robinson and Oshlack, 2010]) plus negative binomial generalized log-linear model ([McCarthy et al., 2012]) was used to test for differential expression between treated and untreated groups, while accounting for pairing of U and T replicates from three different cultures. p-values were adjusted using the false discovery rate method ([Benjamini and Hochberg, 1995]).

Epilancin 15X
fold_change (gene ileS, isoleucyl-tRNA synthetase): 0.47 | fold_change (gene kbl, 2-amino-3-ketobutyrate coenzyme A ligase): 0.46 | fold_change (gene mnhA, monovalent cation/H+ antiporter subunit A): 0.48 | fold_change (gene murC, UDP-N-acetylmuramate--L-alanine ligase): 0.4 | fold_change (gene ndk, nucleoside diphosphate kinase): 0.44 | fold_change (gene nirC, NirC protein): 0.43 | fold_change (gene nos, nitric oxide synthase oxygenase): 0.43 | fold_change (gene opuAC, putative glycine betaine ABC transporter substrate-binding protein): 0.43 | fold_change (gene pmi, mannose-6-phosphate isomerase): 0.42 | fold_change (gene potA, putative spermidine/putrescine import ATP-binding protein PotA): 0.41 | fold_change (gene prmC (SCA_1620), hypothetical protein): 0.48 | fold_change (gene ptsG (glcA), glucose-specific phosphotransferase system enzyme II, factor IIA): 0.42 | fold_change (gene purA, adenylosuccinate synthetase): 0.45 | fold_change (gene purB, adenylosuccinate lyase): 0.41 | fold_change (gene rex (SCA_1553), redox-sensing transcriptional repressor Rex): 0.42 | fold_change (gene rimM, 16S rRNA-processing protein RimM): 0.44 | fold_change (gene rplE, 50S ribosomal protein L5): 0.47 | fold_change (gene rplF, 50S ribosomal protein L6): 0.48 | fold_change (gene rplJ, 50S ribosomal protein L10): 0.48 | fold_change (gene rplL, 50S ribosomal protein L7/L12): 0.48 | fold_change (gene rplR, 50S ribosomal protein L18): 0.47 | fold_change (gene rplX, 50S ribosomal protein L24): 0.48 | fold_change (gene rpmD, 50S ribosomal protein L30): 0.48 | fold_change (gene rpmG, 50S ribosomal protein L33): 0.42 | fold_change (gene rpsE, 30S ribosomal protein S5): 0.48 | fold_change (gene rpsF, 30S ribosomal protein S6): 0.42 | fold_change (gene rpsH, 30S ribosomal protein S8): 0.48 | fold_change (gene rpsR, 30S ribosomal protein S18): 0.47 | fold_change (gene rpsT, 30S ribosomal protein S20): 0.44 | fold_change (gene sdhB, succinate dehydrogenase iron-sulfur subunit): 0.41 | fold_change (gene trmD, tRNA (guanine-N(1)-)-methyltransferase): 0.44 | fold_change (gene trpD, anthranilate phosphoribosyltransferase): 0.4 | fold_change (gene trpS, tryptophanyl-tRNA synthetase): 0.47 | fold_change (gene tyrA, prephenate dehydrogenase): 0.41 | fold_change dps (general stress protein 20U): 6.95 | fold_change Sca_1447 (glycosyltransferase): 3.57 | fold_change Sca_0051 (glyoxalase/bleomycin resistance protein/dioxygenase superfamily protein): 6.15 | fold_change Sca_0808 (glyoxalase/bleomycin resistance protein/dioxygenase superfamily protein (fragment 2)): 2.14 | fold_change gloA (glyoxylase family protein): 3.75 | fold_change grpE (heat shock protein GrpE): 2.94 | fold_change vraS (histidine kinase sensor): 7.95 | fold_change Sca_0031 (hypothetical protein): 3.09 | fold_change Sca_0046 (hypothetical protein): 2.17 | fold_change Sca_0052 (hypothetical protein): 5.71 | fold_change Sca_0054 (hypothetical protein): 2.52 | fold_change Sca_0067 (hypothetical protein): 4.42 | fold_change Sca_0071 (hypothetical protein): 7.07 | fold_change Sca_0072 (hypothetical protein): 7.15 | fold_change Sca_0096 (hypothetical protein): 3.48 | fold_change Sca_0097 (hypothetical protein): 2.35 | fold_change Sca_0098 (hypothetical protein): 2.28 | fold_change Sca_0100 (hypothetical protein): 2.47 | fold_change Sca_0114 (hypothetical protein): 3.35 | fold_change Sca_0117 (hypothetical protein): 2.03 | fold_change Sca_0128 (hypothetical protein): 0.49 | fold_change Sca_0133 (hypothetical protein): 2.43 | fold_change Sca_0179 (hypothetical protein): 5.25 | fold_change Sca_0238 (hypothetical protein): 5.63 | fold_change Sca_0248 (hypothetical protein): 3.2 | fold_change Sca_0264 (hypothetical protein): 2.54 | fold_change Sca_0265 (hypothetical protein): 3.04 | fold_change Sca_0279 (hypothetical protein): 2.02 | fold_change Sca_0299 (hypothetical protein): 4.24 | fold_change Sca_0324 (hypothetical protein): 2.17 | fold_change Sca_0328 (hypothetical protein): 6.61 | fold_change Sca_0329 (hypothetical protein): 5.2 | fold_change Sca_0356 (hypothetical protein): 4.74 | fold_change Sca_0422 (hypothetical protein): 2.12 | fold_change Sca_0454 (hypothetical protein): 3.4 | fold_change Sca_0459 (hypothetical protein): 3.3 | fold_change Sca_0468 (hypothetical protein): 2.78 | fold_change Sca_0471 (hypothetical protein): 4 | fold_change Sca_0472 (hypothetical protein): 3.68 | fold_change Sca_0473 (hypothetical protein): 4.68 | fold_change Sca_0474 (hypothetical protein): 4.61 | fold_change Sca_0477 (hypothetical protein): 4.52 | fold_change Sca_0478 (hypothetical protein): 3.97 | fold_change Sca_0481 (hypothetical protein): 4.58 | fold_change Sca_0482 (hypothetical protein): 3.77 | fold_change Sca_0483 (hypothetical protein): 3.93 | fold_change Sca_0484 (hypothetical protein): 3.96 | fold_change Sca_0485 (hypothetical protein): 3.21 | fold_change Sca_0487 (hypothetical protein): 4.14 | fold_change Sca_0488 (hypothetical protein): 2.02 | fold_change Sca_0489 (hypothetical protein): 2.6 | fold_change Sca_0490 (hypothetical protein): 2.76 | fold_change Sca_0491 (hypothetical protein): 2.13 | fold_change Sca_0525 (hypothetical protein): 2.45 | fold_change Sca_0529 (hypothetical protein): 2.16 | fold_change Sca_0643 (hypothetical protein): 3.47 | fold_change Sca_0647 (hypothetical protein): 2.16 | fold_change Sca_0648 (hypothetical protein): 2.05 | fold_change Sca_0666 (hypothetical protein): 5.78 | fold_change Sca_0700 (hypothetical protein): 2.96 | fold_change Sca_0703 (hypothetical protein): 5.58 | fold_change Sca_0752 (hypothetical protein): 2.97 | fold_change Sca_0778 (hypothetical protein): 3.33 | fold_change Sca_0834 (hypothetical protein): 3.67 | fold_change Sca_0844 (hypothetical protein): 5.22 | fold_change Sca_0862 (hypothetical protein): 2.79 | fold_change Sca_0868 (hypothetical protein): 2.53 | fold_change Sca_0877 (hypothetical protein): 2.02 | fold_change Sca_0934 (hypothetical protein): 3.62 | fold_change Sca_0935 (hypothetical protein): 2.43 | fold_change Sca_0959 (hypothetical protein): 2.05 | fold_change Sca_0965 (hypothetical protein): 2.37 | fold_change Sca_0993 (hypothetical protein): 2.38 | fold_change Sca_1021 (hypothetical protein): 2.3 | fold_change Sca_1081 (hypothetical protein): 2.09 | fold_change Sca_1154 (hypothetical protein): 2.08 | fold_change Sca_1155 (hypothetical protein): 2.03 | fold_change Sca_1209 (hypothetical protein): 3.24 | fold_change Sca_1210 (hypothetical protein): 2.68 | fold_change Sca_1212 (hypothetical protein): 2.1 | fold_change Sca_1236 (hypothetical protein): 5.11 | fold_change Sca_1237 (hypothetical protein): 5.24 | fold_change Sca_1261 (hypothetical protein): 4.39 | fold_change Sca_1262 (hypothetical protein): 4.13 | fold_change Sca_1263 (hypothetical protein): 3.92 | fold_change Sca_1265 (hypothetical protein): 6.01 | fold_change Sca_1328 (hypothetical protein): 2.71 | fold_change Sca_1396 (hypothetical protein): 2.4 | fold_change Sca_1420 (hypothetical protein): 2.04 | fold_change Sca_1461 (hypothetical protein): 6.62 | fold_change Sca_1500 (hypothetical protein): 2.03
